Data set [1] concerns 4T1. As to the kind of experiment: Anticancer activity against mouse 4T1 cells assessed as fold increase in gamma-H2A.X protein expression at 1 uM preincubated for 2 hrs followed by photoirradiation with 500 to 700nm and 12 J/cm^2 LED light and measured after 24 hrs by Western blot analysis relative to control. In kind it is functional. The settings on record: time 26 hrs.
The subject of data set [2] is MDA-MB-231. The data set is described as follows: Induction of intracellular ROS generation in human MDA-MB-231 cells assessed as fold increase in intracellular ROS level at 2.5 uM incubated for 2 hrs followed by under photoirradiation with 500 to 700nm and 12 J/cm^2 LED light by DCFH-DA staining based fluorometric analysis relative dark control group. Type of data set: functional.

For data set [3], the system named is 4T1. As to the kind of experiment: Anticancer activity against mouse 4T1 cells assessed as reduction in cell viability incubated for 24 hrs in presence of irradiation with 500 to 700nm and 12 J/cm^2 LED light by CCK-8 assay. In kind it is functional, cell-based. The settings on record: 4T1, light or radiation study.
A short description of data set [4]: Induction of singlet oxygen production in ethanol assessed as change in absorption spectra at 380nm under photoirradiation with 550nm and 10 J/cm^2 LED light for 2 to 20 mins by ABDA based microplate reader analysis. Type of data set: functional. The settings on record: time 2-20 min.
The nature of data set [5]: Drug localization in lysosome of human MDA-MB-231 cells assessed as increase in apparent yellow fluorescent signal at 5 uM incubated for 2 hrs by Lyso-Tracker Green, ER-Tracker Green, Mito-Tracker Green and Hoechst 33342 staining based confocal laser scanning microscopy. In kind it is ADME, subcellular. The following applies: mda-mb-231, 2 h.
The subject of data set [6] is MDA-MB-231. As to the kind of experiment: Anticancer activity against human MDA-MB-231 cells assessed as reduction in cell viability incubated for 24 hrs in presence of irradiation with 500 to 700nm and 12 J/cm^2 LED light by CCK-8 assay. In kind it is functional, cell-based. The following applies: MDA-MB-231, light or radiation study.
Data set [7] is described as follows: Drug uptake in human MDA-MB-231 cells assessed as increase in intracellular uptake at 5 uM incubated for 10 mins by flow cytometry analysis. The settings on record: mda-mb-231, 10 min. Type of data set: ADME, cell-based.
The nature of data set [8]: Induction of superoxide anion radical production in aqueous solution assessed as increase in fluorescence intensity at 5 uM under photoirradiation with 550nm and 10 J/cm^2 LED light and measured after 8 mins by DHR123 based fluorescence spectroscopic analysis.
Data set [9] concerns 4T1. As to the kind of experiment: Anticancer activity against mouse 4T1 cells assessed as fold increase in cleaved caspase-3 protein expression at 1 uM preincubated for 2 hrs followed by photoirradiation with 500 to 700nm and 12 J/cm^2 LED light and measured after 24 hrs by Western blot analysis relative to control. The settings on record: time 26 hrs. Type of data set: functional.

Data set [10] can be described thus: Drug uptake in human MDA-MB-231 cells assessed as increase in intracellular uptake at 5 uM incubated for 2 hrs by flow cytometry analysis. Type of data set: ADME, cell-based. The following applies: mda-mb-231, 2 h.
Data set [11] concerns MDA-MB-231. The data set is described as follows: Anticancer activity against human MDA-MB-231 cells assessed as reduction in cell viability incubated for 24 hrs by CCK-8 assay. The following applies: MDA-MB-231, 24 h. Type of data set: functional, cell-based.
Data set [12] concerns 4T1. As to the kind of experiment: Anticancer activity against mouse 4T1 cells assessed as reduction in cell viability at 1 uM incubated for 24 hrs under photoirradiation with 500 to 700nm and 12 mW/cm^2 LED light by CCK-8 assay. Type of data set: functional, cell-based.
For data set [13], the system named is MDA-MB-231. As to the kind of experiment: Anticancer activity against human MDA-MB-231 cells assessed as reduction in cell viability at 1 uM incubated for 24 hrs in presence of irradiation with 500 to 700nm and 12 J/cm^2 LED light by CCK-8 assay. Type of data set: functional, cell-based.
The nature of data set [14]: Photostability of compound in EtOH assessed as compound decomposition at 50 uM incubated for 5 to 20 mins under photoirradiation with 550nm and 10 J/cm^2 LED light by UV-visible spectroscopic analysis. Type of data set: physicochemical. The settings on record: time 5-20 min.
The test system of data set [15] is MDA-MB-231. The data set is described as follows: Phototoxicity against human MDA-MB-231 cells assessed as reduction in cell viability incubated for 24 hrs in presence of irradiation with 500 to 700nm and 12 J/cm^2 LED light by CCK-8 assay. In kind it is functional, cell-based.
Data set [16] concerns 4T1. The data set is described as follows: Anticancer activity against mouse 4T1 cells assessed as reduction in cell viability at 0.01 to 10 uM incubated for 24 hrs by CCK-8 assay. In kind it is functional, cell-based. The following applies: dose 0.01-10 µM.
The test system of data set [17] is 4T1. The data set is described as follows: Anticancer activity against mouse 4T1 cells assessed as reduction in cell viability preincubated for 12 hrs followed by photoirradiation with 500 to 700nm and 12 J/cm^2 LED light for 24 hrs by CCK-8 assay. The settings on record: 4T1, light or radiation study. In kind it is functional, cell-based.
Data set [18] in a line: Drug metabolism in human MDA-MB-231 cells assessed as increase in SR expression at 5 uM incubated for 12 hrs by flow cytometry analysis. In kind it is ADME, cell-based. The settings on record: mda-mb-231, 12 h.
The subject of data set [19] is MDA-MB-231. As to the kind of experiment: Anticancer activity against human MDA-MB-231 cells assessed as reduction in cell viability at 0.01 to 10 uM incubated for 24 hrs by CCK-8 assay. Type of data set: functional, cell-based. The following applies: dose 0.01-10 µM.
Data set [20] relates to MDA-MB-231. As to the kind of experiment: Anticancer activity against human MDA-MB-231 cells assessed as number of dead cells at 2.5 uM incubated for 12 hrs by calcein-AM and propidium iodide staining based flow cytometry. In kind it is functional, cell-based.
For data set [21], the system named is MDA-MB-231. The data set is described as follows: Anticancer activity against human MDA-MB-231 cells assessed as reduction in cell viability preincubated for 12 hrs followed by photoirradiation with 500 to 700nm and 12 J/cm^2 LED light for 24 hrs by CCK-8 assay. In kind it is functional, cell-based. The following applies: MDA-MB-231, light or radiation study.

A short description of data set [22]: Stability of compound in gamma-glutamyl transpeptidase at 10 uM incubated for 30 mins by fluorescence assay. In kind it is physicochemical. The following applies: 0.5 h.
A short description of data set [23]: Stability of compound in H2O2 at 10 uM incubated for 30 mins by fluorescence assay. In kind it is physicochemical. The settings on record: 0.5 h.
For data set [24], the system named is MDA-MB-231. The data set is described as follows: Anticancer activity against human MDA-MB-231 cells assessed as number of dead cells at 2.5 uM preincubated for 12 hrs followed by photoirradiation with 500 to 700nm and 12 J/cm^2 LED light for 10 mins by calcein-AM and propidium iodide staining based flow cytometry. Type of data set: functional, cell-based. The following applies: time 12.2 hrs.

Data set [25] is described as follows: Drug metabolism in carboxylesterase (unknown origin) assessed as formation of active photosensitizer 6-amino-5-iodo-1H-phenalen-1-one by measuring increase in fluorescence at 610nM at 10 uM under by fluorescence assay. In kind it is ADME. The settings on record: human.
The nature of data set [26]: Stability of compound in various pH. Type of data set: physicochemical.
Data set [27] can be described thus: Induction of singlet oxygen production in ethanol assessed as singlet oxygen quantum yield at 410nm under photoirradiation with 550nm and 10 mW/cm^2 LED light for 10 to 80 secs by DPBF based microplate reader analysis. Type of data set: functional. The following applies: time 10-80 sec.
The nature of data set [28]: Drug metabolism in carboxylesterase (unknown origin) assessed as formation of active photosensitizer 6-amino-5-iodo-1H-phenalen-1-one at 10 uM under by LC-MS/MS analysis assay. Type of data set: ADME. The following applies: human.
A short description of data set [29]: Stability of compound in GSH at 10 uM incubated for 30 mins by fluorescence assay. Type of data set: physicochemical. The settings on record: 0.5 h.

Calls of active or inactive are those of the source. The rule behind the calls is not given here.

As to `Nc1c(I)cc2c3c(cccc13)C(=O)C=C2`, the figures for the “fold change (FC)” value with 4T1 [1], in the data set with MDA-MB-231 [2] and in the data set with 4T1 [9] were 2.36, 5.54 and 3.09, respectively. Further, the IC50 was 0.59 µM with 4T1 [3], 0.66 µM in the data set on MDA-MB-231 [6] and greater than 50 µM in the data set with MDA-MB-231 [11]. Besides, the result (in data set [4]; in [8]; in the data set with 4T1 [12]; in the data set with MDA-MB-231 [13]; with MDA-MB-231 [15]) was Active. Further, the Drug uptake entry in data set [5], in data set [7] and in data set [10] was “Active” throughout. Moreover, the Stability entry in data set [14] is “Stable”.
`Nc1ccc2c3c(cccc13)C(=O)C=C2`: the result in data set [4] was inactive.
In the case of `O=C(Nc1c(I)cc2c3c(cccc13)C(=O)C=C2)c1ccccc1`, the outcome in the data set with 4T1 [16], in the data set with MDA-MB-231 [19] and in the data set on MDA-MB-231 [24] was Active. For the same compound, the IC50 in the data set with 4T1 [17] is 4.8 µM; in the data set on MDA-MB-231 [21], 4 µM. For the same compound, the Drug metabolism entry in data set [18], in data set [25] and in data set [28] was “Metabolite_Detected” throughout. Besides, the result in the data set on MDA-MB-231 [20] was inactive. Also, the Stability entry in [22], in data set [23], in [26], in data set [14] and in data set [29] was “Stable” throughout. In [27], the Activity came to 0.1.

The values above are taken from ChEMBL document CHEMBL5321227, “Lysosome-targeting phenalenones as efficient type I/II photosensitizers for anticancer photodynamic therapy” (Eur J Med Chem, 2023).
